Key:
[1] = Monitoring of the plasma concentration of 3 octasaccharides in beagle dogs after subcutaneous administration (plasma filtration + anion-exchange HPLC); assay type: in vivo, male dogs of the beagle breed; details: 0.5 mg/kg each
Method: A plasma sample with a volume of between 100 and 1000 μl is withdrawn and, if appropriate, the internal standard is added to the latter.
After homogenization, the resulting solution is introduced into a 30 kD Ultrafree 05 ultrafiltration cartridge (Millipore) rinsed beforehand with 250 μl of water by centrifuging at 10 000 rev/min for 5 minutes. The plasma is introduced into the upper part of the cartridge once or twice, if the amounts to be filtered are greater than 500 μl.
The cartridge is centrifuged at 10 000 rev/min for between 1 and 2 hours and then the filtrate is withdrawn. If appropriate, the second part of the plasma to be filtered is introduced into the upper part of the cartridge and the latter is again centrifuged. The exact amount of plasma introduced will have been weighed. The cartridge is centrifuged until the protein residue in the upper part of the cartridge represents no more than approximately 10% of the initial part.
The filtrate is withdrawn and 210 μl of 3M KCl per ml of plasma filtered are added to the concentrate.
After homogenization, the cartridge is centrifuged at 10 000 rev/min for between 1 and 4 hours. The cartridge is centrifuged until the protein residue in the upper part of the cartridge represents no more than approximately 10% of the initial part.
The second filtrate is withdrawn and 210 μl of 3M KCl per ml of plasma filtered are added a second time to the concentrate.
The third filtrate is withdrawn and 250 μl of water per ml of plasma filtered are added.
The filtrates are combined and diluted 5 fold in water, and the whole is injected directly in anion-exchange HPLC. Immediately before injection, the pH of the injected solution is adjusted to 3 by addition of 1N HCl.
The filtered plasma is analyzed by anion-exchange HPLC.
The columns used are IonPAc As11 columns (Dionex), with a length of 25 cm and an internal diameter of 2 mm. The detector used is a UV spectrophotometer equipped with an array of diodes.
The whole of the […] is injected after adjustment of the pH to 3 by addition of N HCl. The flow rate chosen is 0.22 ml/min; the column temperature is 40° C.
Elution is carried out in gradient mode. The two solutions used are:
Solvent A: NaH2PO4 2.5 mM, brought to pH 2.9 by addition of H3PO4
Solvent B: NaClO4 1N, NaH2PO4 2.5 mM, brought to pH 3.0 by addition of H3PO4
The elution gradient is as follows:
T=0 min: % B=3; T=40 min: % B=60; T=60 min: % B=80
The evolution of a mixture of three octasaccharides in the blood of male dogs of the beagle breed is monitored. These 3 octasaccharides, symbolized ΔIIaIIsIsIs, ΔIsIIaIIsIs and ΔIIaIIsIsIs^1,6-anhydro, are the main affinity octasaccharides of the octasaccharide fractions of Lovenox®.
The mixture is administered subcutaneously to 3 male dogs of the beagle breed at a target dose with regard to each of these 3 constituents of 0.5 mg/kg. The administration solution is a 0.9% NaCl solution of the mixture of the 3 octasaccharides at the target concentration of 0.5 mg/ml. Blood samples of 5 ml are withdrawn at the times 0, 0.25 h, 0.5 h, 1 h, 2 h, 4 h, 6 h, 8 h, 24 h, 30 h and 48 h after administration. The blood samples withdrawn are collected in tubes containing 400 μl of a CTAD (citrate, theophylline, adenosine, dipyridamole) mixture. After homogenization, the solution is centrifuged at 3000 g at 15° C. for 15 min. The plasma supernatant is recovered and stored at −20° C. until use.
For the treatment of the plasma before HPLC injection, approximately 1 ml of plasma is withdrawn and weighed, to which 50 μl of a solution of the internal standard at a concentration of approximately 0.02 g/l are added.
The internal standard is chosen so that it is structurally as close as possible to the products to be analyzed. Its structure is given below.
The tetrasaccharide used makes it possible to correct the potentional influence of the variations in the extraction yield.
The plasma is treated and analyzed by HPLC.

[2] = biological target: ATIII (Homo sapiens, UniProt P01008); assay: Affinity for ATIII; assay type: binding
Chain of ATIII (P01008 33-464, species assumed): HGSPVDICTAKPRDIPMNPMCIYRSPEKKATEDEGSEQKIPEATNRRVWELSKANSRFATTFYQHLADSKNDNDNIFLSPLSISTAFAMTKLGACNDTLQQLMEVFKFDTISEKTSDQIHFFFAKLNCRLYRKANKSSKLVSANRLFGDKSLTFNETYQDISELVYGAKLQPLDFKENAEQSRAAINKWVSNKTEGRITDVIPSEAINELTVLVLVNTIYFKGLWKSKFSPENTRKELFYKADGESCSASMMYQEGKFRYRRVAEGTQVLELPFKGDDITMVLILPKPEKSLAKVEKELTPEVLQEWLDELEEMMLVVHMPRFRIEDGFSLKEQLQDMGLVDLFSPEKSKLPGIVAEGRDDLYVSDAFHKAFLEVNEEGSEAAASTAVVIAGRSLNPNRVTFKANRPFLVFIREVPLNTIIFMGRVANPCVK

CC(=O)NC1C(OC2C(C(=O)O)OC(OC3C(COS(=O)(=O)O)OC(OC4C(C(=O)O)OC(OC5C(COS(=O)(=O)O)OC(O)C(NS(=O)(=O)O)C5O)C(OS(=O)(=O)O)C4O)C(NS(=O)(=O)O)C3OS(=O)(=O)O)C(O)C2O)OC(COS(=O)(=O)O)C(OC2OC(C(=O)O)C(OC3OC(COS(=O)(=O)O)C(OC4OC(C(=O)O)=CC(O)C4OS(=O)(=O)O)C(O)C3NS(=O)(=O)O)C(O)C2O)C1O (stereo not shown) [ΔIsIIaIIsIs]
plasma concentration ([1]; Dog 1, 0 h after subcutaneous administration): 0 nM
plasma concentration ([1]; Dog 1, 0.25 h after subcutaneous administration): 10 nM
plasma concentration ([1]; Dog 1, 0.5 h after subcutaneous administration): 70 nM
plasma concentration ([1]; Dog 1, 1 h after subcutaneous administration): 160 nM
plasma concentration ([1]; Dog 1, 2 h after subcutaneous administration): 330 nM
plasma concentration ([1]; Dog 1, 4 h after subcutaneous administration): 270 nM
plasma concentration ([1]; Dog 1, 6 h after subcutaneous administration): 220 nM
plasma concentration ([1]; Dog 1, 8 h after subcutaneous administration): 180 nM
plasma concentration ([1]; Dog 1, 24 h after subcutaneous administration): 40 nM
plasma concentration ([1]; Dog 1, 30 h after subcutaneous administration): 20 nM
plasma concentration ([1]; Dog 1, 48 h after subcutaneous administration): 0 nM
plasma concentration ([1]; Dog 2, 0 h after subcutaneous administration): 0 nM
plasma concentration ([1]; Dog 2, 0.25 h after subcutaneous administration): 30 nM
plasma concentration ([1]; Dog 2, 0.5 h after subcutaneous administration): 60 nM
plasma concentration ([1]; Dog 2, 1 h after subcutaneous administration): 110 nM
plasma concentration ([1]; Dog 2, 2 h after subcutaneous administration): 200 nM
plasma concentration ([1]; Dog 2, 4 h after subcutaneous administration): 180 nM
plasma concentration ([1]; Dog 2, 6 h after subcutaneous administration): 230 nM
plasma concentration ([1]; Dog 2, 8 h after subcutaneous administration): 150 nM
plasma concentration ([1]; Dog 2, 24 h after subcutaneous administration): 30 nM
plasma concentration ([1]; Dog 2, 30 h after subcutaneous administration): 20 nM
plasma concentration ([1]; Dog 2, 48 h after subcutaneous administration): 0 nM
plasma concentration ([1]; Dog 3, 0 h after subcutaneous administration): 0 nM
plasma concentration ([1]; Dog 3, 0.25 h after subcutaneous administration): 20 nM
plasma concentration ([1]; Dog 3, 0.5 h after subcutaneous administration): 90 nM
plasma concentration ([1]; Dog 3, 1 h after subcutaneous administration): 130 nM
plasma concentration ([1]; Dog 3, 2 h after subcutaneous administration): 190 nM
plasma concentration ([1]; Dog 3, 4 h after subcutaneous administration): 280 nM
plasma concentration ([1]; Dog 3, 6 h after subcutaneous administration): 230 nM
plasma concentration ([1]; Dog 3, 8 h after subcutaneous administration): 190 nM
plasma concentration ([1]; Dog 3, 24 h after subcutaneous administration): 30 nM
plasma concentration ([1]; Dog 3, 30 h after subcutaneous administration): 20 nM
plasma concentration ([1]; Dog 3, 48 h after subcutaneous administration): 0 nM
affinity for ATIII [2]: high affinity for ATIII

— patent US7575930B2, “Method for analyzing oligosaccharides from blood plasma” (priority 2005, dated 2009)
